In this test the test system is C. glabrata (CBS138). Description: MIC dose-response assay in YPD. The test is classed as cell-based. As for the experimental part:
Fig 4 4456dh inhibits the growth of Candida and Cryptococcus species. […] 4456dh was administered at the concentrations indicated. Cultures were grown in YPD at the listed temperatures for 48 hours for Candida species and 72 hours for Cryptococcus species. Experimental temperatures reflect the temperatures at which the fungi experience heat stress. Left: relative growth of treated samples was calculated by averaging technical triplicates and normalizing the OD600 of each treated well to the average OD600 of the untreated WT controls, after the absorbance due to the compound was subtracted. The MIC80 values, calculated based on the OD600 values, are indicated in the white text on each heat map. Right: representative spot assays show the ability of cells to grow after exposure to 4456dh and indicate fungicidal activity of 4456dh. […]
Furthermore, there was significant fungicidal activity of 4456dh on C. glabrata in concentrations starting at approximately 7.8 µM (Fig. 4B).
77 and 5 mM imidazole. The protein was eluted with increasing amounts of imidazole in the wash
78 buffer. The fractions containing 6xHis-CnTps1 were pooled, reduced to 5 mL and purified further
79 using S200 size exclusion column chromatography (HiLoad 26/600 Superdex 200pg, Cytiva) […]
82 determined by SDS-PAGE analysis, were pooled and concentrated to 1 mg/mL for downstream […]
93 The data were acquired with MO.Control 1.5.3 (NanoTemper Technologies GmbH). Recorded
94 data were analyzed with MO.Affinity Analysis 2.2.7 (NanoTemper Technologies GmbH). […]
100 2X Glo-melt dye. Thermal denaturation was measured using an RT-PCR thermocycler (BioRad) […]
102 determined by identifying the inflection point of the derivative data. […]
104 The catalytic activity of C. albicans Tps1 and C. neoformans Tps1 was measured via a continuous […]
110 bottomed 96-well microtiter plates and the decrease in absorbance at 340 nm during the initial
111 reaction rate was recorded using a plate reader (Tecan). The decrease in absorbance was
112 analyzed for the first 200s of the kinetic reaction. […]

Where two headings read alike, the source gives them in different places.

`Cn1cc(-c2csc(NC(=O)Cc3ccccn3)n2)cn1` [Compound 4456dh]: the MIC80 (usually the lowest concentration that inhibits either 80% of growth or 80% of the strains tested, depending on the study) was “no MIC or fungicidal activity was detected” (30°C, YPD); 7.8 µM (Nakaseomyces glabratus, CBS138, 42°C, YPD, 48 hours, read-out: MIC80); 3.1 µg/mL (Nakaseomyces glabratus, CBS138, Supplemental Table 5, This publication, read-out: MIC80).
